In publication PMC10149936, “Cofilin activation in pancreatic acinar cells plays a pivotal convergent role for mediating CCK-stimulated enzyme secretion and growth” (Frontiers in Physiology, 2023):
Like-named read-outs stand apart in the source and are kept apart here.

System: p44/42 MAPK in pancreatic acini
Assay: p44/42 MAPK activation (pT202/Y204 Western blot) in pancreatic acini
Assay type: cell-based
Settings: Rattus norvegicus, Cytochalasin D 10 µM or Paclitaxel 5 µM, 3 h, range
Protocol: Pancreatic acini preparations were obtained by collagenase digestion as previously described ([Bissonnette et al., 1984]; [Sato et al., 1989]; [Ramos-Alvarez and Jensen, 2018]). […] Isolated acini and CCK1-R/Panc-1 cells (M&M 2.2.1) were also preincubated with two SSH1 inhibitors, D3 (25 μM, 1 h) ([Li et al., 2015]) or SE (50 μM, 3 h for acini; 24 h for CCK1-R/Panc-1 cells) ([Lee et al., 2017]). After preincubation, 1 mL aliquots of dispersed acini were incubated at 37°C for 3–15 min with CCK-8 (0.3 nM or 100 nM), for 5–15 min with TPA (1 µM) or without stimulants, used as control. Cells were lysed in lysis buffer (50 mM Tris/HCl pH 7.5, 150 mM NaCl, 1% Triton X-100, 1% deoxycholate, 0.1% sodium azide, 1 mM EGTA, 0.4 mM EDTA, 0.2 mM sodium orthovanadate, 1 mM PMSF, and one protease inhibitor tablet per 10 mL). After sonication, lysates were centrifuged at 10,000×g for 15 min at 4°C and protein concentration was measured using the Bio-Rad protein assay reagent. Finally, cells were processed as below for Western blotting.
Western blotting and immunoprecipitation were performed as described previously ([Ramos-Alvarez and Jensen, 2018]). Whole cell lysates were subjected to SDS-PAGE using 4%–20% Tris–Glycine gels. […] The intensity of the protein bands was measured using GeneTools software from Syngene, which were assessed in the linear detection range. […]

**Q.** CC(=O)O[C@H]1C(=O)[C@@]2(C)[C@H]([C@H](OC(=O)c3ccccc3)[C@]3(O)C[C@H](OC(=O)[C@H](O)[C@@H](NC(=O)c4ccccc4)c4ccccc4)C(C)=C1C3(C)C)[C@]1(OC(C)=O)CO[C@@H]1C[C@@H]2O [Paclitaxel] was tested. Which inhibition at 5 µM (CCK-8 0.3 and 100 nM 3 min, read-out: inhibition of CCK-8-mediated p42/44 phosphorylation) did it give?
**A.** 31 to 41%

**Q.** And the inhibition at 5 µM (TPA 1 µM 5 min, read-out: inhibition of TPA-mediated p42/44 phosphorylation)?
**A.** 27 to 30%
